Here are results for 20 molecules from ChEMBL document CHEMBL1821612, “Discovery of novel antitubercular 3a,4-dihydro-3H-indeno[1,2-c]pyrazole-2-carboxamide/carbothioamide analogues” (Bioorg Med Chem Lett, 2011).

Data set [1] concerns Mycobacterium tuberculosis. Briefly: Antimycobacterial activity against Mycobacterium tuberculosis H37Rv after 2 weeks by BACTEC 460 radiometric method. The conditions noted are these: 336 h. In kind it is functional.
The next data set deals with Vero. Kind of data set: Cytotoxicity against african green monkey Vero cells up to 62.5 ug/mL after 72 hrs by MTT assay. In kind it is cell-based. The conditions noted are these: chlorocebus sabaeus. For orientation: Tetrazolium assays rely on reduction of a dye to a coloured formazan, in cell work by metabolically active cells.

Molecules are shown by their SMILES. ≈ marks a conversion by molar mass, not a printed value.

The molecule `COc1cc2c(cc1OC)C1=NN(C(=O)Nc3ccc(C)cc3C)C(c3ccncc3)C1C2` (stereo unspecified) gave an MIC in data set [1] of 10 µM (≈ 4.43 µg/mL).

For the molecule `COc1cc2c(cc1OC)C1=NN(C(=O)Nc3ccc(C)cc3C)C(c3ccccc3Cl)C1C2` (stereo unspecified), 6.25 µM (≈ 2.97 µg/mL) was the least that counted as inhibitory in data set [1] (MIC).

Turning to `COc1cc2c(cc1OC)C1=NN(C(=O)Nc3ccc(C)cc3C)C(c3ccc(F)cc3)C1C2` (stereo unspecified), the minimal inhibitory concentration (MIC) in data set [1] turned out to be 6.25 µM (≈ 2.87 µg/mL).

`COc1ccc(C2C3Cc4cc(OC)c(OC)cc4C3=NN2C(=O)Nc2ccc(C)cc2C)cc1OC` (stereo unspecified) registered an MIC in data set [1] of 12.5 µM (≈ 6.27 µg/mL).

With `COc1cc2c(cc1OC)C1=NN(C(=O)Nc3ccc(C)cc3C)C(c3ccccc3)C1C2` (stereo unspecified), in data set [1], the MIC was over 12.5 µM.

For the molecule `COc1ccc(C2C3Cc4cc(OC)c(OC)cc4C3=NN2C(=O)Nc2ccc(C)cc2C)cc1` (stereo unspecified), in data set [1], the MIC is over 12.5 µM.

As for `COc1cc2c(cc1OC)C1=NN(C(=O)Nc3c(C)cccc3C)C(c3ccncc3)C1C2` (stereo unspecified), in data set [1], the MIC was over 10 µM.

For the molecule `COc1cc2c(cc1OC)C1=NN(C(=O)Nc3c(C)cccc3C)C(c3ccccc3Cl)C1C2` (stereo unspecified), the MIC in data set [1] stood at 6.25 µM (≈ 2.97 µg/mL).

In turn, `COc1cc2c(cc1OC)C1=NN(C(=O)Nc3c(C)cccc3C)C(c3ccc(F)cc3)C1C2` (stereo unspecified) came in with an MIC in data set [1] of 6.25 µM (≈ 2.87 µg/mL).

Take `COc1ccc(C2C3Cc4cc(OC)c(OC)cc4C3=NN2C(=O)Nc2c(C)cccc2C)cc1OC` (stereo unspecified): the MIC in data set [1] amounted to 12.5 µM (≈ 6.27 µg/mL).

As to `COc1cc2c(cc1OC)C1=NN(C(=O)Nc3c(C)cccc3C)C(c3ccccc3)C1C2` (stereo unspecified), in data set [1], inhibition of growth (MIC) required 12.5 µM (≈ 5.52 µg/mL).

Consider `COc1ccc(C2C3Cc4cc(OC)c(OC)cc4C3=NN2C(=O)Nc2c(C)cccc2C)cc1` (stereo unspecified), for which the MIC in data set [1] was over 12.5 µM.

`COc1cc2c(cc1OC)C1=NN(C(N)=S)C(c3ccncc3)C1C2` (stereo unspecified): the MIC in data set [1] stood at 6.25 µM (≈ 2.22 µg/mL).

With `COc1cc2c(cc1OC)C1=NN(C(N)=S)C(c3ccccc3Cl)C1C2` (stereo unspecified), 6.25 µM (≈ 2.42 µg/mL) was the least that counted as inhibitory in data set [1] (MIC).

In turn, `COc1cc2c(cc1OC)C1=NN(C(N)=S)C(c3ccc(F)cc3)C1C2` (stereo unspecified) had an MIC in data set [1] of 3.12 µM (≈ 1.16 µg/mL). Also, the Activity entry in the data set with Vero is “Non-toxic”.

In the case of `COc1ccc(C2C3Cc4cc(OC)c(OC)cc4C3=NN2C(N)=S)cc1OC` (stereo unspecified), it took 12.5 µM (≈ 5.17 µg/mL) to inhibit growth in data set [1] (MIC).

`COc1cc2c(cc1OC)C1=NN(C(N)=S)C(c3ccccc3)C1C2` (stereo unspecified): the MIC in data set [1] came out at 12.5 µM (≈ 4.42 µg/mL).

On to `COc1ccc(C2C3Cc4cc(OC)c(OC)cc4C3=NN2C(N)=S)cc1` (stereo unspecified), for which inhibition of growth in data set [1] (MIC) required 12.5 µM (≈ 4.79 µg/mL).

The molecule `NNC(=O)c1ccncc1` [ISONIAZID] yielded an MIC in data set [1] of 0.78 µM (≈ 0.107 µg/mL).

In data set [1], `CO[C@H]1/C=C/O[C@@]2(C)Oc3c(C)c(O)c4c(O)c(c(/C=N/N5CCN(C)CC5)c(O)c4c3C2=O)NC(=O)/C(C)=C\C=C\[C@H](C)[C@H](O)[C@@H](C)[C@@H](O)[C@@H](C)[C@H](OC(C)=O)[C@@H]1C` [RIFAMPIN] yielded an MIC of 0.006 µM (≈ 0.00494 µg/mL).

Usually MIC stands for the least concentration at which growth counts as inhibited.
